In patent US10556892B2, “Piperazinyl methanone NAAA inhibitors” (priority 2016, dated 2020):
Converted amounts (≈) assume the structure as drawn. Like-named read-outs stand apart in the source and are kept apart here.

Legend:
[1] = Aqueous kinetic solubility in PBS pH 7.4; type: physicochemical; details: pH 7.4, aqueous buffer, kinetic from dmso stock; for solubility kinetic: Table 10; for solubility at 24 h: PBS
[2] = In vitro metabolic stability, mouse liver microsomes; type: in vitro ADME; design: dose or concentration left out as unconfirmed
Procedure: In vitro metabolic stability. Microsomes stability experiments. In vitro incubation with mouse microsomes (NADPH and UDPG system). […] At time zero, cofactors were added. […] The mixture was kept at 37° C. under shaking. Aliquots (50 mL) were taken at various time points and crashed with 0.15 mL of CH3CN spiked with 500 nM warfarin (internal standard). Reference incubation, with microsomes but without cofactors, was kept at 37° C. and sampled at the end of the time course. After vortexing and centrifugation, 3 mL of supernatant were analyzed by LCMS/MS and detected by multiple reaction monitoring (MRM).

Plasma stability = type: in vitro ADME; design: dose or concentration left out as unconfirmed; details: mouse plasma
h-AC [3] = test system: h-AC
h-AC [4] = target: h-AC (Homo sapiens (Human), UniProt Q13510); assay: biochemical; details: read-out: h-AC inh (%) 30 μM
[5] = Pharmacokinetics study in mice; type: in vivo, mouse; details: for Kp: brain and plasma
Procedure: Compounds were administered orally or intravenously to C57B6/J mice at 3 mg/kg and 3 mg/kg dose, respectively. Vehicle was PEG400/Tween80/saline solution at 15/15/70% in volume, respectively. Three animals per dose were used. […] Control animals treated with vehicle were also included in the study. Animals were sacrificed at time-points and blood and brain samples were collected. […] Brain samples were homogenized in RIPA buffer (150 mM NaCl, 1.0% Triton X-100, 0.5% sodium deoxycholate, 0.1% sodium dodecyl sulfate, 50 mM Tris, pH 8.0) and were then split in two aliquots kept at −80° C. until analysis. An aliquot was used for compound brain level evaluations, following the same procedure described below for plasma samples. The second aliquot was kept for protein content evaluation by bicinchoninic acid (BCA) assay. Samples (plasma and brain homogenate) were thawed in an ice bath, then centrifuged for 20 min and an aliquot of each (50 μL) was transferred into a 96-deepwell plate and added with 150 μl of the extraction solution, consisting of cold acetonitrile spiked with 200 nM of a structural analog of the analyte (14), closely eluting with the analyte itself, as internal standard. After agitation (3 min) the plate was centrifuged at 3000×g for 20 min at 4° C. 80 μl of supernatant was then transferred in a 96-well plate and added with 80 μL of H2O. Standard compound was spiked in net solvent (PBS pH 7.4 added with 20% CH3CN) to prepare a calibration curve over the 1 nM-10 μM range. 3 quality controls samples were also prepared spiking the compound in blank mouse plasma to final 20, 200 and 2000 nM concentrations. Calibrators and QCs were crashed with the same extraction solution used for the plasma samples. Dosing solutions, previously diluted 100000 fold in the net solvent, were also included in the samples and tested. […] Column and UPLC-MS system were purchased from Waters Inc. Milford, USA. Flow rate was set 0.5 mL/min. Eluents were A=H2O and B═CH3CN, both added with 0.1% formic acid. […] The time/concentration profiles measured with the above mentioned system were then analyzed using PK Solutions Excel application (Summit Research Service, USA) to derive the pharmacokinetic data (Maximum observed concentration (Cmax); maximum time (Tmax); cumulative area under curve (AUC) for experimental time points; distribution volume (Vd); systemic clearance (Cl)).

[6] = 25 °C, read-out: Aq. Kinetic Solubility
[7] = phosphate-buffered saline (PBS), 25 °C, Table 11, read-out: Aq. Kinetic Solubility
[8] = pH 7.4, read-out: m-LM stab. t1/2
[9] = phosphate-buffered saline (PBS) pH 7.4, 25 °C, Table 9, read-out: Aq. Skin
[10] = 3 mg/kg, CD1 mouse, iv 3 mpk, brain
[11] = 3 mg/kg, CD1 mouse, iv 3 mpk, plasma
[12] = C57B6/J, 10 mg/kg, C57 mouse, po 10 mpk, brain
[13] = C57B6/J, 10 mg/kg, C57 mouse, po 10 mpk, plasma
[14] = C57B6/J, 30 mg/kg, C57 mouse, po 30 mpk, brain
[15] = C57B6/J, 30 mg/kg, C57 mouse, po 30 mpk, plasma

CCCCS(=O)(=O)c1ccccc1C(=O)N1CCN(c2nc3ccc(F)cc3s2)CC1 [CH2CH2CH2CH3]
solubility kinetic [1, 6]: < 1 µM

O=C(c1ccccc1S(=O)(=O)CCCO)N1CCN(c2nc3ccc(F)cc3s2)CC1 [CH2CH2CH2OH]
solubility kinetic [1, 6]: 49 µM (≈ 22.7 µg/mL)

CCCS(=O)(=O)c1ccccc1C(=O)N1CCN(c2nc3ccc(F)cc3s2)CC1 [CH2CH2CH3]
solubility kinetic [1, 6]: < 1 µM

CCS(=O)(=O)c1ccccc1C(=O)N1CCN(c2nc3ccc(C)cc3s2)CC1 [CH3]
solubility kinetic at 24 h [1, 7]: 181 µM (≈ 77.8 µg/mL)

CCS(=O)(=O)c1ccccc1C(=O)N1CCN(c2nc3ccc(Cl)cc3s2)CC1 [Cl]
solubility kinetic at 24 h [1, 7]: 2 µM (≈ 0.9 µg/mL)

CCS(=O)(=O)c1ccccc1C(=O)N1CCN(c2nc3ccc(F)cc3s2)CC1 [Cmpd 1]
half-life [2, 8]: > 60 min | half-life (Plasma stability; read-out: m-plasma stab. t1/2): > 120 min

CCS(=O)(=O)c1ccccc1C(=O)N1CCN(c2nc3ccccc3o2)CC1 [Cmpd 6]
solubility kinetic at 24 h [1, 9]: > 250 µM | half-life [2, 8]: 27 min | half-life (Plasma stability; read-out: m-plasma stab. t1/2): > 120 min | h-AC inh (%) 30 μM (h-AC [3]): 64% | inhibition at 30 µM (h-AC [4]): 0%

CCS(=O)(=O)c1ccccc1C(=O)N1CCN(c2nc3c(F)cc(F)cc3s2)CC1 [Cmpd 34]
h-AC inh (%) 30 μM (h-AC [3]): 17% | inhibition at 30 µM (h-AC [4]): 4%

CCS(=O)(=O)c1ccccc1C(=O)N1CCN(c2nc3ccc(F)c(F)c3s2)CC1 [Cmpd 35]
solubility kinetic at 24 h [1, 9]: 7 µM (≈ 3.16 µg/mL) | half-life [2, 8]: > 60 min | half-life (Plasma stability; read-out: m-plasma stab. t1/2): > 120 min | h-AC inh (%) 30 μM (h-AC [3]): 12% | inhibition at 30 µM (h-AC [4]): 0%

CCS(=O)(=O)c1ccccc1C(=O)N1CCN(c2nc3ccc(F)cc3s2)C[C@@H]1C [Compound 8, (2-ethylsulfonylphenyl)-[(2S)-4-(6-fluoro-1,3-benzothiazol-2-yl)-2-methyl-piperazin-1-yl]methanone]
Cmax [5, 10]: 1610 ng/mL | Tmax [5, 10]: 5 min | half-life [5, 10]: 43.5 min | AUC ([5]; 3 mg/kg, CD1 mouse, iv 3 mpk, brain, read-out: AUC): 867 ng·h/mL | Cmax [5, 11]: 1810 ng/mL | Tmax [5, 11]: 5 min | clearance [5, 11]: 31 mL/min/kg | half-life [5, 11]: 53.6 min | AUC ([5]; 3 mg/kg, CD1 mouse, iv 3 mpk, plasma, read-out: AUC): 1550 ng·h/mL | Vd ([5]; 3 mg/kg, CD1 mouse, iv 3 mpk, plasma, read-out: Vss): 2.4 L/kg | Cmax [5, 12]: 392 ng/mL | Tmax [5, 12]: 30 min | half-life [5, 12]: 73.3 min | AUC ([5]; C57B6/J, 10 mg/kg, C57 mouse, po 10 mpk, brain, read-out: AUC): 1340 ng·h/mL | Cmax [5, 13]: 1470 ng/mL | Tmax [5, 13]: 30 min | half-life [5, 13]: 80.4 min | AUC ([5]; C57B6/J, 10 mg/kg, C57 mouse, po 10 mpk, plasma, read-out: AUC): 5340 ng·h/mL | Cmax [5, 14]: 2240 ng/mL | Tmax [5, 14]: 15 min | half-life [5, 14]: 188 min | AUC ([5]; C57B6/J, 30 mg/kg, C57 mouse, po 30 mpk, brain, read-out: AUC): 3230 ng·h/mL | Cmax [5, 15]: 5170 ng/mL | Tmax [5, 15]: 15 min | half-life [5, 15]: 84.3 min | AUC ([5]; C57B6/J, 30 mg/kg, C57 mouse, po 30 mpk, plasma, read-out: AUC): 46200 ng·h/mL | Kp ([5]; C57B6/J, 10 mg/kg, C57 mouse, po 10 mpk, read-out: AUCbrain/AUCplasma): 0.251 | Kp ([5]; C57B6/J, 30 mg/kg, C57 mouse, po 30 mpk, read-out: AUCbrain/AUCplasma): 0.07 | Total AUC (AUCplasma + AUCbrain) ([5]; C57 mouse, po 10 mpk): 6683 | % distribution (AUC organ/(AUCplasma + AUCbrain)) ([5]; C57 mouse, po 10 mpk, brain): 20% | % distribution (AUC organ/(AUCplasma + AUCbrain)) ([5]; C57 mouse, po 10 mpk, plasma): 80% | Cl ([5]; C57 mouse, po 10 mpk, plasma): 30.429 mL/min/kg | Vss ([5]; C57 mouse, po 10 mpk, plasma): 3.53 L/kg | Total AUC ([5]; C57 mouse, po 30 mpk): 49447.7 | % distribution ([5]; C57 mouse, po 30 mpk, brain): 7% | % distribution ([5]; C57 mouse, po 30 mpk, plasma): 93% | Cl ([5]; C57 mouse, po 30 mpk, plasma): 10.817 mL/min/kg | Vss ([5]; C57 mouse, po 30 mpk, plasma): 1.32 L/kg | Total AUC ([5]; CD1 mouse, iv 3 mpk): 2421.5 | % distribution ([5]; CD1 mouse, iv 3 mpk, brain): 36% | % distribution ([5]; CD1 mouse, iv 3 mpk, plasma): 64% | Kp ([5]; 3 mg/kg, CD1 mouse, iv 3 mpk, read-out: AUCbrain/AUCplasma): 0.557

CCS(=O)(=O)c1ccccc1C(=O)N1CCN(c2nc3c(F)cccc3s2)CC1 [Compound 8]
half-life [2, 8]: 16 min | half-life (Plasma stability; read-out: m-plasma stab. t1/2): > 120 min

CCS(=O)(=O)c1ccccc1C(=O)N1CCN(c2nc3ccc(F)cc3s2)C[C@@H]1C [Compound 8]
solubility at 24 h ([1]; phosphate-buffered saline (PBS), 25 °C, Table 5): 165 µM (≈ 73.8 µg/mL) | solubility at 24 h ([1]; phosphate-buffered saline (PBS), 25 °C, Table 7): 139 ± 1 µM (≈ 62.2 µg/mL) | half-life ([2]; pH 7.4, NADPH, read-out: MLM (NADPH) t1/2): > 60 min | half-life (Plasma stability; Table 5, read-out: Plasma t1/2): > 120 min | Kp ([5]; C57B6/J, mouse, 3 mg/kg, mice, oral administration, read-out: brain-to-plasma ratio): 0.25 | Tmax ([5]; C57B6/J, mouse, plasma, oral 3 mg/kg, mice): 30 min | AUC ([5]; C57B6/J, mouse, plasma, oral 3 mg/kg, mice, read-out: AUCplasma): 988 ng·h/mL | Cmax ([5]; C57B6/J, mouse, oral 3 mg/kg, mice, plasma): 613 ng/mL

CCS(=O)(=O)c1ccccc1C(=O)N1CCN(c2nc3cccc(F)c3s2)CC1 [Compound 9]
half-life [2, 8]: 16 min | half-life (Plasma stability; read-out: m-plasma stab. t1/2): > 120 min | inhibition at 30 µM (h-AC [4]): -3%

CCCS(=O)(=O)c1ccccc1C(=O)N1CCN(c2nc3ccc(F)cc3s2)CC1 [Compound 11]
half-life [2, 8]: > 60 min | half-life (Plasma stability; read-out: m-plasma stab. t1/2): > 120 min | inhibition at 30 µM (h-AC [4]): 2%

O=C(c1ccccc1S(=O)(=O)C1CCC1)N1CCN(c2nc3ccc(F)cc3s2)CC1 [Compound 12]
half-life [2, 8]: > 60 min | half-life (Plasma stability; read-out: m-plasma stab. t1/2): > 120 min | inhibition at 30 µM (h-AC [4]): -3%

O=C(c1ccccc1S(=O)(=O)C1COC1)N1CCN(c2nc3ccc(F)cc3s2)CC1 [Compound 13]
half-life [2, 8]: > 60 min | half-life (Plasma stability; read-out: m-plasma stab. t1/2): > 120 min

CCS(=O)(=O)c1ccccc1C(=O)N1CCN(c2nc3ccc(F)cc3s2)C(C)C1 (centres unmarked) [Compound 16]
inhibition at 30 µM (h-AC [4]): 25%
